Data reported in patent publication US10785975B2, “Water and feed antimicrobial preservative” (priority 2009, dated 2020).
Where two headings read alike, the source gives them in different places.

What was measured:
[1] = system: Salmonella typhimurium; experiment: Example 2: effect of carbon chain length of individual organic acids on antimicrobial activity in water; assay type: cell-based; parameters: MIC at 4 HR / MIC at 24 FIR: unit not given here; conditions: for MIC at 4 HR / MIC at 24 FIR: Minimum Inhibitory Concentration of Organic Acids against Salmonella, by linear regression; for MIC at 24 FIR: 24 hours; for killing at 0.05 % / killing at 0.075 % / killing at 0.1 % / killing at […]: Salmonella enterica, TYPHIMURIUM
Description: 100 ul of a nutrient broth culture of Salmonella typhimurium was added to each dilution tube. After addition, tubes were vortexed and allowed to stand. At 4 and 24 hours after addition of the inoculum, 100 ul of the solution was plated on agar (triplicate plates). Plates were incubated at 37° C. for 24 hours prior to enumeration. The minimum effective dose of each acid was be determined by linear regression: […]

[2] = system: Salmonella typhimurium; experiment: Example 1: effect of pH buffering of acetic and propionic acid on antimicrobial activity in water; assay type: cell-based; conditions: for MIC at 4 Hr / MIC at 24 HR: Minimum Inhibitory Concentrations, by linear regression over 0.025-0.1% acid solutions
Description: Propionic and acetic acids were buffered with ammonium hydroxide to pHs ranging from 1 to 7. Acid contents of the buffered solutions were determined by a weight to weight ratio calculation to obtain the same acid content in the test solutions. […] The pHs of the deionized water solutions were recorded and any problems with solubility noted.
100 ul of a nutrient broth culture of Salmonella typhimurium was added to each dilution tube. After addition, tubes were vortexed and allowed to stand. At 4 and 24 hours after addition of the inoculum, 100 ul of the solution was plated on Standard Plate agar (triplicate plates). Plates were incubated at 37° C. for 24 hours prior to enumeration. The minimum effective dose of each acid was determined by linear regression.

[3] = Product Conc. 0.025 (% acid solution in water), 4 hr
[4] = Product Conc. 0.025 (% acid solution in water), 24 hr
[5] = Product Conc. 0.05 (% acid solution in water), 4 hr
[6] = Product Conc. 0.05 (% acid solution in water), 24 hr
[7] = Product Conc. 0.075 (% acid solution in water), 4 hr
[8] = Product Conc. 0.075 (% acid solution in water), 24 hr
[9] = Product Conc. 0.1 (% acid solution in water), 4 hr
[10] = Product Conc. 0.1 (% acid solution in water), 24 hr
[11] = 4 h, read-out: Salmonella at time Interval 4 hr % reduction
[12] = 24 h, read-out: Salmonella at time Interval 24 hr % reduction
[13] = Product Conc. 0.025 (% acid solution in water), 4 hr, read-out: Salmonella at time Interval 4 hr % reduction
[14] = Product Conc. 0.025 (% acid solution in water), 24 hr, read-out: Salmonella at time Interval 24 hr % reduction
[15] = Product Conc. 0.05 (% acid solution in water), 4 hr, read-out: Salmonella at time Interval 4 hr % reduction
[16] = Product Conc. 0.05 (% acid solution in water), 24 hr, read-out: Salmonella at time Interval 24 hr % reduction
[17] = Product Conc. 0.075 (% acid solution in water), 4 hr, read-out: Salmonella at time Interval 4 hr % reduction
[18] = Product Conc. 0.075 (% acid solution in water), 24 hr, read-out: Salmonella at time Interval 24 hr % reduction
[19] = Product Conc. 0.1 (% acid solution in water), 4 hr, read-out: Salmonella at time Interval 4 hr % reduction
[20] = Product Conc. 0.1 (% acid solution in water), 24 hr, read-out: Salmonella at time Interval 24 hr % reduction
[21] = Product Conc. 0.025 (% acid solution in water)
[22] = Product Conc. 0.05 (% acid solution in water)
[23] = Product Conc. 0.075 (% acid solution in water)
[24] = Product Conc. 0.1 (% acid solution in water)

| Structure (SMILES) | MIC at 4 HR ([1]; 4 hr) | MIC at 24 FIR [1] | Salmonella at time Interval 4 hr cfu/g [1, 3] | Salmonella at time Interval 24 hr cfu/g [1, 4] | Salmonella at time Interval 4 hr cfu/g [1, 5] | Salmonella at time Interval 4 hr % reduction [2, 21] | Salmonella at time Interval 4 hr cfu/g [2, 21] | Salmonella at time Interval 24 hr % reduction [2, 21] | Salmonella at time Interval 24 hr cfu/g [2, 21] | Salmonella at time Interval 4 hr % reduction [2, 22] | Salmonella at time Interval 4 hr cfu/g [2, 22] | Salmonella at time Interval 24 hr % reduction [2, 22] | Salmonella at time Interval 24 hr cfu/g [2, 22] | Salmonella at time Interval 4 hr % reduction [2, 23] | Salmonella at time Interval 4 hr cfu/g [2, 23] | Salmonella at time Interval 24 hr % reduction [2, 23] | Salmonella at time Interval 24 hr cfu/g [2, 23] | Salmonella at time Interval 4 hr % reduction [2, 24] | Salmonella at time Interval 24 hr % reduction [2, 24] | Salmonella at time Interval 24 hr cfu/g [2, 24] | further results |
| --- | --- | --- | --- | --- | --- | --- | --- | --- | --- | --- | --- | --- | --- | --- | --- | --- | --- | --- | --- | --- | --- |
| CCCCCC(=O)O [Caproic acid] | 0.103 | 0.063 | 1267 cfu/g | 30 cfu/g | 1433 cfu/g |  |  |  |  |  |  |  |  |  |  |  |  |  |  |  | Salmonella at time Interval 24 hr cfu/g [1, 6]: 7 cfu/g; Salmonella at time Interval 4 hr cfu/g [1, 7]: 523 cfu/g; Salmonella at time Interval 24 hr cfu/g [1, 8]: 0 cfu/g; Salmonella at time Interval 4 hr cfu/g [1, 9]: 27 cfu/g; Salmonella at time Interval 24 hr cfu/g [1, 10]: 0 cfu/g; killing at 0.05 % [1, 11]: 10%; killing at 0.075 % [1, 11]: 67%; killing at 0.1 % [1, 11]: 98%; killing at […] [1, 11]: 21%; killing at 0.05 % [1, 12]: 100%; killing at 0.075 % [1, 12]: 100%; killing at 0.1 % [1, 12]: 100%; killing at […] [1, 12]: 98% |
| CCCCCCCC(=O)O [Caprylic acid/KOH, Caprylic acid] | 0.109 | 0.090 | 1567 cfu/g | 1400 cfu/g | 1333 cfu/g |  |  |  |  |  |  |  |  |  |  |  |  |  |  |  | Salmonella at time Interval 24 hr cfu/g [1, 6]: 797 cfu/g; Salmonella at time Interval 4 hr cfu/g [1, 7]: 1100 cfu/g; Salmonella at time Interval 24 hr cfu/g [1, 8]: 77 cfu/g; Salmonella at time Interval 4 hr cfu/g [1, 9]: 0 cfu/g; Salmonella at time Interval 24 hr cfu/g [1, 10]: 0 cfu/g; killing at […] [1, 13]: 2%; killing at […] [1, 14]: 18%; killing at 0.05 % [1, 15]: 17%; killing at 0.05 % [1, 16]: 53%; killing at 0.075 % [1, 17]: 31%; killing at 0.075 % [1, 18]: 95%; killing at 0.1 % [1, 19]: 100%; killing at 0.1 % [1, 20]: 100% |
| CCCCCCCCCCCC(=O)O [Lauric acid/KOH, Lauric acid] | 0.072 | <0.025 | 670 cfu/g | 20 cfu/g | 0 cfu/g |  |  |  |  |  |  |  |  |  |  |  |  |  |  |  | Salmonella at time Interval 24 hr cfu/g [1, 6]: 0 cfu/g; Salmonella at time Interval 4 hr cfu/g [1, 7]: 0 cfu/g; Salmonella at time Interval 24 hr cfu/g [1, 8]: 0 cfu/g; Salmonella at time Interval 4 hr cfu/g [1, 9]: 0 cfu/g; Salmonella at time Interval 24 hr cfu/g [1, 10]: 0 cfu/g; killing at […] [1, 13]: 58%; killing at […] [1, 14]: 99%; killing at 0.05 % [1, 15]: 100%; killing at 0.05 % [1, 16]: 100%; killing at 0.075 % [1, 17]: 100%; killing at 0.075 % [1, 18]: 100%; killing at 0.1 % [1, 19]: 100%; killing at 0.1 % [1, 20]: 100% |
| CCC(=O)O [Propionic pH 4, Propionic acid] |  |  |  |  |  | 9% | 1367 cfu/g | 48% | 615 cfu/g | 20% | 1200 cfu/g | 75% | 293 cfu/g | 37% | 943 cfu/g | 84% | 187 cfu/g | 22% | 86% | 163 cfu/g | MIC at 4 Hr ([2]; pH 4): 0.237; MIC at 24 HR ([2]; pH 4): 0.091 |
| CCC(=O)O [Propionic pH 5, Propionic acid] |  |  |  |  |  | 0% | >1505 cfu/g | 33% | 793 cfu/g | 7% | 1400 cfu/g | 20% | 943 cfu/g | 22% | 1167 cfu/g | 47% | 630 cfu/g | 46% | 53% | 557 cfu/g | MIC at 4 Hr ([2]; pH 5): 0.170; MIC at 24 HR ([2]; pH 5): 0.165; Salmonella at time Interval 4 hr cfu/g [2, 24]: 817 cfu/g |
| CCC(=O)O [Propionic pH 6, Propionic acid] |  |  |  |  |  | 0% | >1505 cfu/g | 0% | 1450 cfu/g | 7% | 1400 cfu/g | 10% | 1067 cfu/g | 0% | >1505 cfu/g | 0% | 1233 cfu/g | 0% | 0% | 1333 cfu/g | Salmonella at time Interval 4 hr cfu/g [2, 24]: 1700 cfu/g |
| CCC(=O)O [Propionic pH 7, Propionic acid] |  |  |  |  |  | 0% | >1505 cfu/g | 0% | 1667 cfu/g | 0% | 1700 cfu/g | 0% | 1367 cfu/g | 0% | >1505 cfu/g | 0% | 1700 cfu/g | 0% | 0% | 1367 cfu/g | Salmonella at time Interval 4 hr cfu/g [2, 24]: 1600 cfu/g |
